This is an account of results in US20050239733A1, “Sequence requirements for inhibitory oligonucleotides” (Coley Pharmaceutical GmbH, priority 2003, published 2005).

Data set [1] addresses T1, human TLR8 (Homo sapiens, UniProt Q9NR97).
T1 construct: expressed in transfected cells
T1 sequence (Q9NR97 27-1041): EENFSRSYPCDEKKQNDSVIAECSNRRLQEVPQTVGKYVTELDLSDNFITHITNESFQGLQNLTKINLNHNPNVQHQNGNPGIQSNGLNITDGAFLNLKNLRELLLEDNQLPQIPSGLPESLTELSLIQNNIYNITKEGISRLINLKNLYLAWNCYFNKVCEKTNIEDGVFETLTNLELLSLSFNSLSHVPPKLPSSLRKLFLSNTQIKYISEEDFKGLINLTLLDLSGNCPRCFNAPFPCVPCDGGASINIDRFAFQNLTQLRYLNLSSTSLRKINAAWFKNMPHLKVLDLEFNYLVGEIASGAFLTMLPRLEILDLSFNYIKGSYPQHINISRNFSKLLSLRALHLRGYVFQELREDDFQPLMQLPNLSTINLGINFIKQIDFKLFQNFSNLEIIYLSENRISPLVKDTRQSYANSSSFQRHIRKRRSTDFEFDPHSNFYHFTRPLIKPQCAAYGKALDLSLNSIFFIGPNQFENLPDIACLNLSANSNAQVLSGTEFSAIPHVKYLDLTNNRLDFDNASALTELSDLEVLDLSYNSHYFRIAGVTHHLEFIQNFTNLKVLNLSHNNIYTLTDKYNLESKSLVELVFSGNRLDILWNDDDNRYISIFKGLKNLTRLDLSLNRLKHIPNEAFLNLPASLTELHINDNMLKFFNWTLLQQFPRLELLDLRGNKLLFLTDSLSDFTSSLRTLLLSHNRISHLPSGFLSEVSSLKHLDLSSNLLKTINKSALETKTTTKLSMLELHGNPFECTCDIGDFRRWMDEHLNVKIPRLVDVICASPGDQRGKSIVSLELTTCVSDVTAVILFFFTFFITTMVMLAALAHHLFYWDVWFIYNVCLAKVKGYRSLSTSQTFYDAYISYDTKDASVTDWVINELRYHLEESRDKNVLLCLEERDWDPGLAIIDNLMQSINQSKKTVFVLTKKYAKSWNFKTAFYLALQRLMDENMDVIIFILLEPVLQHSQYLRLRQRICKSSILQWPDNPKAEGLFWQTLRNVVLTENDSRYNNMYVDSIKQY
As to the kind of experiment: Inhibition of R-848-mediated NF-κB-luciferase activation in hTLR8-LUC-293 cells. It counts as cell-based. Particulars: general statement 'found according to the present invention'; conditions not given. As to the method: The previous examples describe the ability of certain inhibitory ODN to inhibit activation of signal transduction mediated by human Toll-like receptor 9 (hTLR9). […] The assay system involved stimulating hTLR8-LUC-293 cells with the TLR8 ligand, R-848 (Resiquimod; Jurk M et al. (2002) Nat Immunol 3:499) in the presence and absence of ODN and comparing the induction of luciferase activity in the absence of ODN to luciferase activity in the presence of ODN.
Cells were assayed for luciferase activity 16 h later. Results were calculated as fold induction above medium background.
Luciferase activity was assayed after 16 h.
hTLR8-LUC-293 cells were incubated with 50 μM R-848 in the presence of increasing concentrations of the following ODN: ODN 2088, D13GT (whererin D is dSpacer), GTN13, N6GTN7, random 15-mer N15, N13GT, and the dinucleotide GT. Luciferase activity was assayed after 16 h. Luciferase activity of R-848 without any ODN was set to 100% (without correction for medium background, i.e. background activity of medium remained at approx. 17%).
Luciferase activity was assayed after 16 h. Luciferase activity of R-848 without any ODN was set to 100% (without correction for medium background, i.e., background activity of medium remained at approx. 17%).
In yet a further set of experiments hTLR8-LUC-293 cells were incubated with 50 μM R-848 in the presence of increasing amounts of different dinucleotides (GT, ODN 603; TG, ODN 688; GG, ODN 689; GU, ODN 690; UG, ODN 691; AT, ODN 692; and TT, ODN 693). Luciferase was assayed after 16 h. Luciferase activity of R-848 without any ODN was set to 100% and remaining R-848-mediated NF-κB activation in the presence of dinucleotides or ODN 2088 was calculated. Medium background was 17% in this set of experiments.
hTLR-LUC-293 cells (expressing the respective humanTLR7, TLR8, or TLR9) were incubated with constant amounts of TLR-agonist (for hTLR7: 2 μM R-848, for hTLR8: 50 μM R-848, and for hTLR9: 0.156 μM CpG ODN 2006) and increasing amounts of TLR-antagonist. […] To compare data for different TLRs, percent remaining activity of agonist was plotted against the log of molar ratio of antagonist to agonist (e.g., for hTLR8: 50 μM R-848 and 5 μM ODN, the plotted ratio is 10^−1). Used ODN concentrations were: for hTLR7 and hTLR8, 5 μM, 0.5 μM, 0.05 μM, and 0.005 μM, and for hTLR9, 2.5 μM, 0.156 μM, 0.0098 μM and 0.00061 μM.

Data set [2] addresses T2, human TLR9 (Homo sapiens, UniProt Q9NR96).
T2 sequence (Q9NR96 26-1032): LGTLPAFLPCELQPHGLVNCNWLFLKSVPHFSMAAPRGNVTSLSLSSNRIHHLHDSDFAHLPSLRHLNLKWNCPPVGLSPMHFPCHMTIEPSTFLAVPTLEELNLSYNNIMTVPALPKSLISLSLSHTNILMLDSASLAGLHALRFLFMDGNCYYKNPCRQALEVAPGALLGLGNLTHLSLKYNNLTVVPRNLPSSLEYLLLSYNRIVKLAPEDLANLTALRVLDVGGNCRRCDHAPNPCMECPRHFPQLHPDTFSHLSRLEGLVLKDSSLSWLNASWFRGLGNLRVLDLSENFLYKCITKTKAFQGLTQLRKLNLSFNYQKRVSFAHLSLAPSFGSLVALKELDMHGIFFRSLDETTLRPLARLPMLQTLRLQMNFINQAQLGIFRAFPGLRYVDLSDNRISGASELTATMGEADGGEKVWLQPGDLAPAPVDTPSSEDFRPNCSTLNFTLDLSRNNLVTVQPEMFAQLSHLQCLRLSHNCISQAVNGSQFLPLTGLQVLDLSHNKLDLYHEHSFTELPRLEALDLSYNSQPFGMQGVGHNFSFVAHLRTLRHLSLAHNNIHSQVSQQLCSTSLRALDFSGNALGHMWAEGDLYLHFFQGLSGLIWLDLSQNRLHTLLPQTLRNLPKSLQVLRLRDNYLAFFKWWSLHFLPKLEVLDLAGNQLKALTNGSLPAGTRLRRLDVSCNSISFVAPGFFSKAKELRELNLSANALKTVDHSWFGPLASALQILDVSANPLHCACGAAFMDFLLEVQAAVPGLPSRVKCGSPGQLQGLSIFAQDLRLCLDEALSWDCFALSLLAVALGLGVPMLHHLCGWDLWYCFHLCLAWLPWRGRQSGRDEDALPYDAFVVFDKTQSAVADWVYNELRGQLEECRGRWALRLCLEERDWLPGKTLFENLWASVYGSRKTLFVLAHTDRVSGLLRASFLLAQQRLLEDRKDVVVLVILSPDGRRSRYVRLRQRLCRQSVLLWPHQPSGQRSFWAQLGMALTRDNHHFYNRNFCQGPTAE
As to the kind of experiment: Inhibition of CpG ODN 2006-mediated NF-κB-luciferase activation in hTLR9-LUC-293 cells. Particulars: for Percent 2006 Activity: equimolar 0.156 μM CpG ODN 2006 and inhibitory ODN; for inhibitory for TLR9: general statement 'found according to the present invention', conditions not given; for inhibition of hTLR9 (CpG ODN 2006-mediated luciferase activity), in words: 0.156 μM CpG ODN 2006, increasing ODN, 16 h.

[3] abbreviates: Table 2 (5′ CC replaced by other dinucleotides).
Where [4] appears, read: Table 3 (nucleotides flanking 5′ CC, truncations).
The mark [5] stands for this setting: Table 1 (length b / Spacer 18 variants).

For “TGATGGCGGGGAAGT (listed as DNA, chemistry not given here) [ODN 444]”, the “inhibitory for TLR8” value in data set [1] is “inhibitory”. Further, the “Percent 2006 Activity” value in data set [2] (setting [3]) worked out at 96%.
As for “TTTTGGCGGGGAAGT (DNA, backbone and methylation of C not given here) [ODN 072]”, in data set [2] (setting [3]), the “Percent 2006 Activity” value is given as 121%.
As to “CCCTGGCGGGGAAGT (DNA, backbone and methylation of C not given here) [ODN 942]”, the “inhibitory for TLR8” value in data set [1] was “inhibitory”. Besides, in data set [2] (setting [4]), the “Percent 2006 Activity” value is 8%. Moreover, the “inhibitory for TLR9” value in data set [2] is “inhibitory”.
“TATTGGCGGGGAAGT (DNA, backbone and methylation of C not given here) [ODN 442]”: the “Percent 2006 Activity” value in data set [2] (setting [3]) turned out to be 101%.
As for “TCCTAGCGGGGAAGT (DNA, backbone and methylation of C not given here) [SEQ ID NO:10]”, the “inhibitory for TLR8” value in data set [1] is given as “inhibitory”. Also, the “inhibitory for TLR9” value in data set [2] is “inhibitory”.
“TTGTGGCGGGGAAGT (DNA, backbone and methylation of C not given here) [ODN 438]”: the “Percent 2006 Activity” value in data set [2] (setting [3]) was found to be 95%.
Take “TCCTAGCGGGGGCGTCCTAT (chemistry not given here) [SEQ ID NO:12]”: in data set [1], the “inhibitory for TLR8” value is on record as “not for TLR8”. In data set [2], the “inhibitory for TLR9” value is given as “inhibitory”.
As for “TCCTGTGTGTGTGTGTGTCGGGGAAGT (DNA, backbone and methylation of C not given here) [ODN 497]”, the “inhibitory for TLR8” value in data set [1] is “inhibitory”. For the same sequence, the “Percent 2006 Activity” value in data set [2] (setting [5]) stood at 28%. In data set [2], the “inhibitory for TLR9” value is recorded as “inhibitory”.
As for “TGCTGGCGGGGAAGT (listed as DNA, chemistry not given here) [ODN 443]”, the “inhibitory for TLR8” value in data set [1] is reported as “inhibitory”. Besides, the “Percent 2006 Activity” value in data set [2] (setting [3]) is on record as 91%.
For the sequence “ACCTGGCGGGGAAGT (DNA, backbone and methylation of C not given here) [ODN 941]”, in data set [1], the “inhibitory for TLR8” value is listed as “inhibitory”. Further, in data set [2] (setting [4]), the “Percent 2006 Activity” value worked out at 11%. Further, the “inhibitory for TLR9” value in data set [2] is recorded as “inhibitory”.
Regarding “TAGTGGCGGGGAAGT (DNA, backbone and methylation of C not given here) [ODN 441]”, the “Percent 2006 Activity” value in data set [2] (setting [3]) is on record as 105%.
Turning to “TCCAGGCGGGGAAGT (DNA, backbone and methylation of C not given here) [ODN 157]”, the “Percent 2006 Activity” value in data set [2] (setting [4]) worked out at 14%.
“TCGTGGCGGGGAAGT (DNA, backbone and methylation of C not given here) [ODN 435]”: the “Percent 2006 Activity” value in data set [2] (setting [3]) turned out to be 77%.
For the sequence “TCCTGTGTGTGTGTGTCGGGGAAGT (listed as DNA, chemistry not given here) [ODN 495]”, the “Percent 2006 Activity” value in data set [2] (setting [5]) was found to be 34%.
As for “NNNNNNNNNNNNNN [ODN 605, reference compound]”, the “inhibition of hTLR9 (CpG ODN 2006-mediated luciferase activity), in words” value in data set [2] was “not”.
Take “TTCTGGCGGGGAAGT (DNA, backbone and methylation of C not given here) [ODN 440]”: the “Percent 2006 Activity” value in data set [2] (setting [3]) came out at 90%.
On the same count and under the same terms, the value for “TCTTGGCGGGGAAGT (DNA, backbone and methylation of C not given here) [ODN 437]” was 89%.
With “TCCTGLGGGGAAGT (Spacer 18 hexaethyleneglycol spacer, as printed in the source, key not given here) [ODN 493]”, the “Percent 2006 Activity” value in data set [2] (setting [5]) was found to be 54%.
With “TAATGGCGGGGAAGT (DNA, backbone and methylation of C not given here) [ODN 959]”, in data set [2] (setting [3]), the “Percent 2006 Activity” value came to 92%.
For “TGGTGGCGGGGAAGT (DNA, backbone and methylation of C not given here) [ODN 436]”, the “Percent 2006 Activity” value in data set [2] (setting [3]) was determined as 90%.
For “TTATGGCGGGGAAGT (DNA, backbone and methylation of C not given here) [ODN 439]”, the “Percent 2006 Activity” value in data set [2] (setting [3]) is 91%.
On to “TCCTGTGTGTGTGTCGGGGAAGT (listed as DNA, chemistry not given here) [ODN 494]”, for which the “Percent 2006 Activity” value in data set [2] (setting [5]) turned out to be 47%.
In the case of “TACTGGCGGGGAAGT (DNA, backbone and methylation of C not given here) [ODN 074]”, the “Percent 2006 Activity” value in data set [2] (setting [3]) was found to be 132%.
For the sequence “TCCTGGCGGGGAA (DNA, backbone and methylation of C not given here) [ODN 969]”, the “inhibition of hTLR9 (CpG ODN 2006-mediated luciferase activity), in words” value in data set [2] is reported as “inhibited”.
As to “TCATGGCGGGGAAGT (DNA, backbone and methylation of C not given here) [ODN 073]”, the “Percent 2006 Activity” value in data set [2] (setting [3]) stood at 114%.
Regarding “TCCTGLLGGGGAAGT (two Spacer 18 hexaethyleneglycol spacers, as printed in the source, key not given here) [ODN 492]”, the “Percent 2006 Activity” value in data set [2] (setting [5]) is recorded as 67%.
